According to US6750349B2, “Gastrokinetic monocyclic benzamides of 3-or 4-substituted 4-(aminoethyl)-piperidine derivatives” (Janssen Pharmaceutics, N.V., priority 1997, dated 2004):

System: conscious dogs
Test: Gastric emptying of an acaloric liquid test meal delayed by administration of lidamidine, in conscious dogs
Type: in vivo, beagle dogs
Conditions: conscious dog; for ΔT/T^b (acceleration of gastric emptying of a liquid meal delayed by lidamidine): dose of 0.0025 mg/kg; for ΔT/T^a (acceleration of gastric emptying of a liquid meal delayed by lidamidine): dose of 0.01 mg/kg
Excerpt: C.1. Gastric Emptying of an Acaloric Liquid Test Meal Delayed by Administration of Lidamidine, in Conscious Dogs
Female beagle dogs, weighing 7-14 kg, were trained to stand quietly in Pavlov frames. They were implanted with a gastric cannula under general anesthesia and aseptic precautions. After a median laparatomy, an incision was made through the gastric wall in the longitudinal direction between the greater and the lesser curve, 2 cm above the nerves of Latarjet. The cannula was secured to the gastric wall by means of a double purse string suture and brought out via a stab wound at the left quadrant of the hypochondrium. Dogs were allowed a recovery period of at least two weeks. Experiments were started after a fasting period of 24 hours, during which water was available ad libitum. At the beginning of the experiment, the cannula was opened in order to remove any gastric juice or food remnants.
The stomach was cleansed with 40 to 50 ml lukewarm water. The test compound was administered I.V. (in a volume≦3 ml via the vena cephalica), S. C. (in a volume≦3 ml) or P. O. (in a volume of 1 ml/kg body weight, applied intragastrically via the cannula with a device that filled the lumen of the cannula; after injection of the test compound, 5 ml NaCl 0.9% was injected in order to correct for the dead space in the injection system). Immediately after administration of the test compound or its solvent, lidamidine 0.63 mg/kg was administered subcutaneously. 30 min later, the cannula was opened to determine the amount of fluid present in the stomach, promptly followed by reintroduction of the fluid. Then the test meal was administered via the cannula. This test meal consisted of 250 ml distilled water containing glucose (5 g/l) as a marker. The cannula remained closed for 30 min, whereafter the gastric contents were drained from the stomach to measure total volume (t=30 min). For later analysis 1 ml of the gastric contents was taken, promptly followed by reintroduction of the rest volume into the stomach. This sequence was repeated 4 times with 30 min intervals (t=60, 90, 120, 150 min).
In the 1 ml samples of the gastric contents, the glucose concentrations were measured on a Hitachi 717 automatic analyzer by the hexokinase method (Schmidt, 1961).
Curves were fitted to the measurement points (glucose versus time) using weighed non-linear regression analysis. Gastric emptying was quantified as the time needed to empty 70% of the meal (t70%). The control emptying time was calculated as the mean t70% of the last 5 solvent experiments of the same dog. Acceleration of delayed gastric emptying (Δt) was calculated as the time difference between t70% compound and t70% solvent. To correct for variations in emptying rate between dogs, Δt was expressed as % of t70% solvent (Schuurkes et al, 1992)).

[1] = compounds, Δt = t70% compound minus t70% solvent, relative to t70% solvent

Structure (SMILES): CCCCN1CC[C@@H](CNC(=O)c2cc(Cl)c(N)c(OC)c2OC)[C@H](O)C1.O (racemic) [Compound 9, (±)-trans-4-amino-N-[(1-butyl-3-hydroxy-4-piperidinyl)methyl] -5-chloro-2,3-dimethoxybenzamide monohydrate]
- ΔT/T^b (acceleration of gastric emptying of a liquid meal delayed by lidamidine) [1]: −0.29
- ΔT/T^a (acceleration of gastric emptying of a liquid meal delayed by lidamidine) [1]: −0.55
- ΔT/T^b (acceleration of gastric emptying of a liquid meal delayed by lidamidine) (intermediates): −0.40
- ΔT/T^a (acceleration of gastric emptying of a liquid meal delayed by lidamidine) (intermediates): −0.31

Structure (SMILES): COCCCN1CC[C@@H](CNC(=O)c2cc(Cl)c(N)c(OC)c2OC)[C@H](O)C1 (racemic) [Compound 11, (±)-trans-4-amino-5-chloro-N-[[3-hydroxy-1-(3-methoxypropyl)-4-piperidinyl]methyl]-2,3-dimethoxybenzamide]
- ΔT/T^b (acceleration of gastric emptying of a liquid meal delayed by lidamidine) [1]: −0.62
- ΔT/T^a (acceleration of gastric emptying of a liquid meal delayed by lidamidine) [1]: −0.59

Structure (SMILES): COc1c(C(=O)NC[C@@H]2CCN(CCCC(C)=O)C[C@H]2O)cc(Cl)c(N)c1OC.O (racemic) [Compound 14, (±)-trans-4-amino-5-chloro-N-[[3-hydroxy-1-(4-oxopentyl)-4-piperidinyl]methyl]-2,3-dimethoxybenzamide monohydrate]
- ΔT/T^b (acceleration of gastric emptying of a liquid meal delayed by lidamidine) [1]: −0.52
- ΔT/T^a (acceleration of gastric emptying of a liquid meal delayed by lidamidine) [1]: −0.67
